Results on 4 molecules are retold here after patent publication US7196108B2, “Bicyclic heterocycles for the treatment of diabetes and other diseases” (Incyte San Diego Inc., priority 2002, dated 2007).

Molecules are shown by their SMILES. “Also recorded” adds a separate entry of the source.

Broadly, the melting point is the temperature of the solid-liquid transition.

The test system of one data set is KKA^y mice. Description: Oral administration in the treatment of type 2 diabetes in KKA^y mice (serum glucose and triglycerides). Type of data set: in vivo, mouse. Conditions: 15 mg/kg oral gavage once daily in sesame oil, days 7 and/or 14, vs control; for serum glucose level: FIG. 2; for serum triglyceride level: FIG. 3. The protocol:
These models include among others, db/db mice, ob/ob mouse, and KKA^y mice. […] A procedure for such experiments was described in detail in Iwatsuka, et al., 1970 General Survey of Diabetic Features of Yellow KK Mice. Endocrinol. Japon. 17: 23–35, incorporated herein by reference. The testing of the compounds of the invention was conducted as described in Example 22. The animals were treated with a single daily oral dose of 15 mg/kg of the test compound suspended in sesame oil (dose volume of 3–5 ml/kg). At the end of one and two weeks of treatment the animals were bled from the tail vein and their serum glucose and triglycerides and/or cholesterol was measured in duplicate.
Experimental Procedure: Six to eight week-old male KKA^y mice (available from Jackson Labs of Bar Harbour, Me.) were housed in a fixed 12–12-hr artificial light-dark cycle, and maintained on a standard rodent diet provided ad libitum. Animals were allowed two days to acclimate in this experimental environment prior to the initiation of the study. Prior to initiation of treatment, the animals were bled from the tail vein (100–200 μL of whole blood) and serum levels of glucose and triglycerides were measured in duplicate (Trinder kits; Sigma, St.Louis, Mo.). Based on these initial measures, animals were sorted into groups with approximately the same average serum triglyceride levels. Once sorted, the animals were housed one per cage and provided rodent diet ad libitum.
Treatment group A (n=6/group): • 1) KKA^y control (sesame oil) • 2) Compound 1 (15 mg/kg)
Treatment group B (n=6/group): • 1) KKA^y control (sesame oil) • 2) Compound 6 (15 mg/kg)
Treatment group C (n=6/group): • 1) KKA^y control (sesame oil) • 2) Compound 9 (15 mg/kg)
All compounds were suspended in sesame oil, and administered to animals in a volume of 3 ml/kg/dose. All treatments were administered by oral gavage once daily.
To monitor the effect of the tested Compounds, animals were bled at the end of the dark cycle on days 7 and/or 14 of the treatment period. Serum glucose and triglyceride levels were measured in duplicate. The blood was kept at room temperature to allow coagulation, after which the serum was separated and assayed for glucose and triglyceride levels.

The test system of the next data set is 3T3-L1 pre-adipocytes. Conditions: disclosed in U.S. Pat. No. 6,515,003; cited from earlier work.
The conditions of data set [1]: disclosed in U.S. Pat. No. 6,515,003; cited from earlier work.

Molecule `CC(C)Cc1cc(-c2cc(/C=C3\SC(=O)NC3=O)ccc2OC(F)(F)F)c2c(c1)C(C)(C)CO2` [Compound 1, 5-[3-(5-Isobutyl-3,3-dimethyl-2,3-dihydro-benzofuran-7-yl)-4-trifluoromethoxy-benzylidene]-thiazolidine-2,4-dione] showed a melting point of 142 to 146 °C. Moreover, in the data set on KKA^y mice, the serum glucose level result is recorded as “significantly lowered; also recorded: reduction” and the serum triglyceride level entry is given as “lowered; also recorded: reduction”.

Turning to `COc1c(F)cc(/C=C2\SC(=O)NC2=O)c(F)c1-c1cc(CC(C)C)cc2c1OCC2(C)C` [Compound 6, 5-[2,5-Difluoro-3-(5-isobutyl-3,3-dimethyl-2,3-dihydro-benzofuran-7-yl)-4-methoxy-benzylidene]-thiazolidine-2,4-dione], in the data set on KKA^y mice, the serum glucose level entry was “significantly lowered; also recorded: reduction” and the serum triglyceride level entry is listed as “lowered; also recorded: reduction”.

Take `CC1(C)COc2c(-c3cc(/C=C4\SC(=O)NC4=O)ccc3OC(F)(F)F)cc(-c3ccoc3)cc21` [Compound 9, 5-[3-(5-Furan-3-yl-3,3-dimethyl-2,3-dihydro-benzofuran-7-yl)-4-trifluoromethoxy-benzylidene]-thiazolidine-2,4-dione]: in the data set on KKA^y mice, the serum glucose level entry is recorded as “significantly lowered; also recorded: reduction” and the serum triglyceride level entry is listed as “lowered; also recorded: reduction”.

Consider `Cc1cc2c(cc1-c1cc(/C=C3\SC(=O)NC3=O)ccc1OC(F)(F)F)C(C)(C)CCC2(C)C` [Compound 20, 5-[3-(3,5,5,8,8-Pentamethyl-5,6,7,8-tetrahydro-naphthalen-2-yl)-4-trifluoromethoxy-benzylidene]-thiazolidine-2,4-dione], for which, in the data set on 3T3-L1 pre-adipocytes, the adipocyte differentiation activity entry was “active”. Also, in data set [1], the “activity for the treatment of diabetes” value is “active”.
